Assay results as given in US20020061836A1, “Methods for altering SXR activation using peptide mimetic HIV protease inhibitor SXR ligands” (priority 2000, published 2002).

How the values were obtained:
Details in all cases: 10 μM paclitaxel
[1] = molecular target: T1, human RXRα ligand binding domain (Homo sapiens, UniProt P19793); test: Gal-L-RXR Gal4 reporter transient transfection assay in CV-1 cells; assay type: cell-based
T1 construct: expressed in transfected cells; host or cells: CV-1
T1 sequence (P19793 203-462): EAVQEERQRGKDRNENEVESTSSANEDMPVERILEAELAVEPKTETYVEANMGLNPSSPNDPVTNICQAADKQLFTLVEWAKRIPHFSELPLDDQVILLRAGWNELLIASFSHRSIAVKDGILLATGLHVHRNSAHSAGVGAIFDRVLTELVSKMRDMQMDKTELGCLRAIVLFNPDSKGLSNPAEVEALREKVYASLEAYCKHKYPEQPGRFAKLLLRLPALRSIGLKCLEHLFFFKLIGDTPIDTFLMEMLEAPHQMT
Text: The Gal4 reporter activity was normalized to the internal β-galactosidase control and the data plotted as fold activation relative to untreated cells. All transfections contained the Gal4 reporter and a β-galactosidase expression vector as an internal control.

human VDR = molecular target: T2, human VDR (Homo sapiens, UniProt P11473); test: Nuclear receptor specificity transfection assay; assay type: cell-based
T2 construct: expressed in transfected cells; host or cells: CV-1
T2 sequence (P11473 whole entry): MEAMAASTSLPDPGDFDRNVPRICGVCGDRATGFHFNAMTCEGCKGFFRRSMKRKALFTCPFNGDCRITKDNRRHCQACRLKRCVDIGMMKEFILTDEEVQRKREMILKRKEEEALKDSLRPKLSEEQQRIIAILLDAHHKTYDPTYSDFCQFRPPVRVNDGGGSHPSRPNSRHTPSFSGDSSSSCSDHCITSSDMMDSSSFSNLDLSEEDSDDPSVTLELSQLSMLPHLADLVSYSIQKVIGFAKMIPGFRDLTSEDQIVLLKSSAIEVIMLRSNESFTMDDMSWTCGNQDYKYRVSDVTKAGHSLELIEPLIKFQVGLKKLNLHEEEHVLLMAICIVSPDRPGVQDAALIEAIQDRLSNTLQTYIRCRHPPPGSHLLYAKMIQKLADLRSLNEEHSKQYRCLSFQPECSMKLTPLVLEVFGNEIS

human LXRα = molecular target: T3, human LXRα (Homo sapiens, UniProt Q13133); test: Nuclear receptor specificity transfection assay; assay type: cell-based
T3 construct: expressed in transfected cells; host or cells: CV-1
T3 sequence (Q13133 1-447): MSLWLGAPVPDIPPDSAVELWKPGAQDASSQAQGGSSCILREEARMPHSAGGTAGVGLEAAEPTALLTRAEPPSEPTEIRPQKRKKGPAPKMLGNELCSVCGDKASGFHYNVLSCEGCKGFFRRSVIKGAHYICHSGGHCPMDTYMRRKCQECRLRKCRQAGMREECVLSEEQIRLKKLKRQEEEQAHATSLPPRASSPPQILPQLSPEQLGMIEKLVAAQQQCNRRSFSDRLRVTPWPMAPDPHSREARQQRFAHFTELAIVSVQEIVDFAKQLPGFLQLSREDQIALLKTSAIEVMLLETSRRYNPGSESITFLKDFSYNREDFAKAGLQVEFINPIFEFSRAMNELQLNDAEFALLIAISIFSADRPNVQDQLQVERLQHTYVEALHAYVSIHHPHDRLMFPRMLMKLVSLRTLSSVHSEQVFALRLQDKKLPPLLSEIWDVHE

mouse CARβ = molecular target: T4, mouse CARβ (Mus musculus, UniProt O35627); test: Nuclear receptor specificity transfection assay / LXRE×3-TK-luc reporter with CARβ in CV-1 cells; assay type: cell-based
T4 sequence (O35627 1-358): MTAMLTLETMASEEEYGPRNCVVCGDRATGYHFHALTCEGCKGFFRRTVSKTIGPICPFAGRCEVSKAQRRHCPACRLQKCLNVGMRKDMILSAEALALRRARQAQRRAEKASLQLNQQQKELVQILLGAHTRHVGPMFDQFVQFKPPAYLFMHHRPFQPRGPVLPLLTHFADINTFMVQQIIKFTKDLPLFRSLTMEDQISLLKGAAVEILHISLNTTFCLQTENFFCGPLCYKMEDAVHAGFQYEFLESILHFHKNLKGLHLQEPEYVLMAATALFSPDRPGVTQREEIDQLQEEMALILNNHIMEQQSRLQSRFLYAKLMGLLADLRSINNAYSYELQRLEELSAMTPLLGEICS

human ERα = human ERα (Homo sapiens, UniProt P03372)
Chain of human ERα (P03372 whole entry): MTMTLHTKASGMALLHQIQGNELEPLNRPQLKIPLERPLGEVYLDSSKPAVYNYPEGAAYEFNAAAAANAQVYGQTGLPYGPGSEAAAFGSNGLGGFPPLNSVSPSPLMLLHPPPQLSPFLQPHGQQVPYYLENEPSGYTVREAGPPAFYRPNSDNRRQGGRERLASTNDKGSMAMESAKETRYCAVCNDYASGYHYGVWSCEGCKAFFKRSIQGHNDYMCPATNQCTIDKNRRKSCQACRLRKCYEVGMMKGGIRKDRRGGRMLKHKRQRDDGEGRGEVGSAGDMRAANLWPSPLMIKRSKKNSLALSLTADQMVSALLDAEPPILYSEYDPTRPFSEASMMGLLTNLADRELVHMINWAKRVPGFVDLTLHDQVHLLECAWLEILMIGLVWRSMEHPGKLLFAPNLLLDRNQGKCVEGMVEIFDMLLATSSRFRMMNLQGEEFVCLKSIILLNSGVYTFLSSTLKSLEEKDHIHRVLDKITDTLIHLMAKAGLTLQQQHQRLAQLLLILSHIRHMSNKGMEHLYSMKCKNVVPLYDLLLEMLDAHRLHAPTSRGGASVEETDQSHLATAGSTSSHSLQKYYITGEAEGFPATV

[2] = system: thyroid hormone receptor β (TRβ)

CC(=O)O[C@H]1C(=O)[C@@]2(C)[C@H]([C@H](OC(=O)c3ccccc3)[C@]3(O)C[C@H](OC(=O)[C@H](O)[C@@H](NC(=O)c4ccccc4)c4ccccc4)C(C)=C1C3(C)C)[C@]1(OC(C)=O)CO[C@@H]1C[C@@H]2O [paclitaxel]
no effect: effect on RXR reporter activity [1] | effect on VDR reporter activity (human VDR) | effect on LXRα reporter activity (human LXRα) | effect on CARβ reporter activity (mouse CARβ) | effect on ERα reporter activity (human ERα) | effect on TRβ reporter activity [2]
